These results are taken from patent publication US6703388B2, “Nitrogen-containing tricyclic compounds and drugs containing the same” (Eisai Co., Ltd., priority 1996, dated 2004).

The target of assay [1] is T1, IgE receptor γ chain and 72 kDa tyrosine kinase (Rattus norvegicus, UniProt Q64725).
T1 construct: The phosphorylation experiment of the 72 kDa tyrosine kinase contained in the lysate or cytosol; endogenous in cells; host or cells: RBL-2H3 cell lysate (1% NP-40) or cytosolic fraction
Briefly: Inhibition of binding of IgE receptor γ chain to tyrosine kinase of 72 kDa (kinase phosphorylation in RBL-2H3 lysate or cytosol). Format: biochemical. The following applies: Conc. of Compd. 10 μM. The procedure:
RBL-2H3 cells which are a cell line generally used in studying IgE-mediated intracellular signal transduction in mast cells and basophils were used in this study. Tyrosine-phosphorylated peptide in the tyrosine activation motif (TAM) region in the IgE receptor γ chain was synthesized by Peptide Institute.
In the experiment, cell lysates or cytosolic fraction of RBL-2H3 cells were used. Cell lysates were prepared by solubilizing 1×10^7 to 5×10^7 cells with a solution containing various protease inhibitors and 1%-NP-40 as a solubilizer. Separately, the cells were homogenized in a Downs homogenizer and centrifuged at 50,000 rpm for 1 hr, and the resulting supernatant was used as the cytosol fraction of the cells. The concentration of the lysate or cytosol was adjusted to 1 mg protein/ml with an isotonic buffer. The phosphorylation experiment of the 72 kDa tyrosine kinase contained in the lysate or cytosol was carried out in the following manner.
An assay buffer [150 mM NaCl, 10 mM KCl, 20 mM Tris (pH 7.5), 0.6 mM MnCl2, 0.5 mM EGTA, 5 mM NaF, 1 mM sodium pyrophosphate and 1 mM sodium orthovanadate] containing the lysate or cytosol in an amount corresponding to […] of protein was incubated together with the compound 101 at 30° C. for 3 min. After adding […] of the peptide in the TAM region containing the phosphorylated tyrosine and […] of ATP, the incubation was further effected at 30° C. for 15 min. After the completion of the reaction, the sample was electrophoresed on a 10% […] gel and a tyrosine kinase of 72 kDa was separated. The activation of this kinase was confirmed by examining the phosphorylation of the tyrosine moiety in the kinase per se by western blotting with the use of anti-tyrosine phosphorylation antibody. Then the extent of the phosphorylation was numerically expressed by using an image analyzer and thus the tyrosine kinase phosphorylation inhibitory ratio of the compound 101 was determined

The next assay deals with RBL-2H3 cells. Briefly: Inhibition of serotonin liberation from IgE-sensitized RBL-2H3 cells after antigen stimulation. Format: cell-based, rat. The following applies: Rattus norvegicus. The method, boiled down:
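Rat RBL-2H3 cells labelled with [3H]-serotonin and sensitized with IgE simultaneously, incubated with compound, then challenged with specific antigen. Inhibition derived from [3H]-serotonin released into medium relative to release without compound.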

For another assay, the system named is human basophils. Briefly: Inhibition of mediator (histamine, peptide leukotriene) liberation from human basophils stimulated with mite antigen. Format: cell-based. To be noted: enzyme immunoassay. Put shortly:
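Dextran-separated leukocyte fraction containing basophils from heparinized human blood, in D-PBS(+) with 0.1% BSA, pretreated with compound 15 min at 37 °C, then challenged with mite antigen for 10 min. Released histamine and peptide leukotrienes in supernatant quantified by enzyme immunoassay.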

Assay [2] concerns the target T2, tyrosine kinase of 72 kDa (Rattus norvegicus, UniProt Q64725).
T2 construct: endogenous in cells; host or cells: RBL-2H3 cells
Briefly: Inhibition of activation (phosphorylation) of tyrosine kinase of 72 kDa due to antigenic stimulation in RBL-2H3 cells. It counts as cell-based. The procedure:
RBL-2H3 cells were incubated for 10 min together with a test compound in a PBS buffer containing 0.1% of BSA and 1 mM of calcium. Next, the cells were reacted with an antigen specific for the IgE receptor for 10 min. After the completion of the antigenic stimulation, the cells were allowed to stand in ice for 1 hr in a 10 mM phosphate buffer (pH 7.5) containing a lysis buffer (1% Triton X-100, 0.1% SDS, 0.5% sodium deoxycholate, 50 mM NaCl, 50 mM NaF, 1 mM phenylmethyl sulfonyl fluoride, 50 μg/ml eupeptin, 10 unit/ml aprotonin) and 0.1% of NaN3 followed by centrifugation to give a cell lysate. This lysate was diluted with a buffer for electrophoresis, heated (95° C., 5 min) and then electrophoresed on a 10% SDS-polyacrylamide gel. After the electrophoresis, the sample was electrically transcribed onto a 0.2 μm nitrocellulose membrane and treated with an anti-phosphotyrosine antibody for 1 hr. Then the inhibitory activity was evaluated by the coloring analysis through chemiluminescence.

The mark [3] stands for this setting: [3H]-serotonin release, IgE-sensitized RBL-2H3 cells, antigen stimulation, read-out: IC50 (μM) in serotonin liberation from RBL-2H3 cells.
[4] abbreviates: histamine, read-out: IC50 (μM) in mediator liberation from human basophils: histamine.
The mark [5] stands for this setting: peptide leukotriene, read-out: IC50 (μM) in mediator liberation from human basophils: leukotriene.

SMILES strings stand for the structures. Read-outs that look alike come from different tables or passages of the source. Bounds are passed on as bounds.

T1 sequence (Q64725 whole entry): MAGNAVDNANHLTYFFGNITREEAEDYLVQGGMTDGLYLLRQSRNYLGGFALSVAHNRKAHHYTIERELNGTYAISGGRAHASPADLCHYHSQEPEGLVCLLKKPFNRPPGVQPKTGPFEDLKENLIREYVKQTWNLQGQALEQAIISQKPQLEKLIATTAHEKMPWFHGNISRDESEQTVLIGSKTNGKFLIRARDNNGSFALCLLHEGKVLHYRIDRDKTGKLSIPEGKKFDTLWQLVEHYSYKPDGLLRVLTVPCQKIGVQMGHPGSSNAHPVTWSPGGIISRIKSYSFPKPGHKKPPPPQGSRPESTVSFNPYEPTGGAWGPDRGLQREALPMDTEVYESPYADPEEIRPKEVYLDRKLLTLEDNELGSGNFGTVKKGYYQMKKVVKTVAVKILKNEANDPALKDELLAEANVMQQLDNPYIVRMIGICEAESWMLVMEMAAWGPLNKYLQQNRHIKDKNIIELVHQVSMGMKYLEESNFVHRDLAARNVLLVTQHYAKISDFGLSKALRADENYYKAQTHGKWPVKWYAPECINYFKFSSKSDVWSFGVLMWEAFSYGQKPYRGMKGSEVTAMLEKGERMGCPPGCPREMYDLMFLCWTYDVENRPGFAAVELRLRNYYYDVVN
T2 sequence (Q64725 whole entry): as above

Regarding `Cc1ccc2c(c1C)N(CCCNCc1ccccc1)c1ccccc1[S+]2[O-]` (stereo not shown) [Example 22, 1,2-Dimethyl-10-(3-benzylaminopropyl)-phenothiazine-5-oxide], the “Inhibitory Strength (%)” value in assay [1] came to 80%; in assay [2] (Conc. of Compd. 3 μM), 100%. Further, the results for the IC50 in the assay on RBL-2H3 cells (setting [3]), in the assay on human basophils (setting [4]) and in the assay with human basophils (setting [5]) were 0.1 µM, 10 to 30 µM and 10 µM, respectively.
Take `Cc1ccc2c(c1C)N(CCCN1CCC(O)(c3ccccc3)CC1)c1ccccc1[S+]2[O-]` (stereo not shown) [Example 124]: the “Inhibitory Strength (%)” value in assay [1] and in assay [2] (Conc. of Compd. 10 μM) was 100% throughout. Further, the IC50 is 2 µM with RBL-2H3 cells (RBL-2H3, read-out: IC50 (μM) in serotonin liberation from RBL-2H3 cells); 10 to 30 µM in the assay on human basophils (setting [4]); 10 µM with human basophils (setting [5]).
Consider `Cc1ccc2c(c1C)N(CCCN1CCC(Cc3ccccc3)CC1)c1ccccc1[S+]2[O-]` (stereo not shown) [Example 127], for which the “Inhibitory Strength (%)” value in assay [1] and in assay [2] (Conc. of Compd. 10 μM) was 100% throughout. Further, the results for the IC50 with RBL-2H3 cells (setting [3]), in the assay on human basophils (setting [4]) and with human basophils (setting [5]) were 2 µM, 10 to 30 µM and 10 µM, respectively.
For `Cc1ccc2c(=NOCCC(=O)O)c3ccccc3n(CCCNCc3ccccc3)c2c1C` [Example 235], the IC50 in the assay on RBL-2H3 cells (setting [3]) is less than 1 µM; in the assay on human basophils (setting [4]), 30 µM; with human basophils (setting [5]), 30 µM. Further, the “Inhibitory Strength (%)” value in assay [2] (Conc. of Compd. 3 μM) came to 100%.
Regarding `Cc1ccc2c(c1C)N(CCCN(CCO)Cc1ccccc1)c1ccccc1S2(=O)=O` [Example 202], the IC50 with RBL-2H3 cells (setting [3]) was 6 µM; in the assay with human basophils (setting [4]), 10 to 30 µM; in the assay with human basophils (setting [5]), less than 10 µM. In addition, the “Inhibitory Strength (%)” value in assay [2] (Conc. of Compd. 30 μM) is on record as 80%.
As for `Cc1ccc2c(c1C)N(C/C=C/CNCc1ccccc1)c1ccccc1[S+]2[O-]` (stereo not shown) [Example 138, 1,2-Dimethyl-10-[4-benzylamino(2-butenyl)]phenothiazine-5-oxide], the IC50 in the assay on RBL-2H3 cells (setting [3]) is 3 µM; with human basophils (setting [4]), 10 to 30 µM; with human basophils (setting [5]) it was 10 µM. Also, in assay [2] (Conc. of Compd. 10 μM), the “Inhibitory Strength (%)” value was 100%.
Consider `Cc1ccc2c(c1C)N(CCCCNCc1ccccc1)c1ccccc1[S+]2[O-]` (stereo not shown) [Example 139], for which the IC50 with RBL-2H3 cells (setting [3]) was 2 µM; in the assay with human basophils (setting [4]), 30 to 100 µM; with human basophils (setting [5]), 10 to 30 µM. The “Inhibitory Strength (%)” value in assay [2] (Conc. of Compd. 10 μM) came out at 100%.
As to `Cc1ccc2c(c1C)N(CCCNc1ccccc1)c1ccccc1[S+]2[O-]` (stereo not shown) [Example 123], the IC50 in the assay on RBL-2H3 cells (setting [3]) is 3 µM; in the assay with human basophils (setting [4]) it was 30 µM; in the assay on human basophils (setting [5]), 10 to 30 µM. Besides, in assay [2] (Conc. of Compd. 30 μM), the “Inhibitory Strength (%)” value came to 100%.
Consider `Cc1ccc2c(c1C)N(CCCNCc1ccccc1)c1cc(CCO)ccc1[S+]2[O-]` (stereo not shown) [Example 94], for which the IC50 is less than 1 µM with RBL-2H3 cells (setting [3]), 30 to 100 µM in the assay on human basophils (setting [4]) and 10 µM in the assay on human basophils (setting [5]). The “Inhibitory Strength (%)” value in assay [2] (Conc. of Compd. 3 μM) worked out at 100%.
For the compound `Cc1ccc2c(c1C)N(CCCN(CCO)Cc1ccccc1)c1ccccc1[S+]2[O-]` (stereo not shown) [Example 105], the results for the IC50 with RBL-2H3 cells (setting [3]), with human basophils (setting [4]) and in the assay with human basophils (setting [5]) were 2 µM, 30 µM and 10 to 30 µM, respectively. Further, in assay [2] (Conc. of Compd. 3 μM), the “Inhibitory Strength (%)” value came out at 100%.
